PMC8317065, “UPLC-MS/MS Method for Analysis of Endocannabinoid and Related Lipid Metabolism in Mouse Mucosal Tissue” (Frontiers in Physiology, 2021)

What was measured:
[1] = system: MGL and ABHD6; assay: MAG degradative enzyme activity assay with JZL 184 and WWL 70 together, lung protein isolates; format: biochemical; settings: mouse lung
Procedure: (§1) Homogenized samples were centrifuged at 800 × g for 15 m at 4°C. The supernatant was collected in a 2.0 mL centrifuge tube and sonicated twice for 10 s. Samples underwent two sequential freeze thaw cycles using liquid N2. Samples were again centrifuged at 800 × g, 15 min, 4°C and the supernatant was collected. Total protein was then quantified via BCA assay and normalized between all samples. Protein isolations for each assay and each tissue were performed separately.
Substrate solutions were prepared by drying stock 19:2 MAG (50 nmol/reaction) under N2 steam and adding fatty acid free BSA (0.25%) and stock 50 mM Tris–HCl (pH = 8.0). The MGL substrate solution was then sonicated for 60 min while protein samples were prepared. […] MGL substrate solution was added to normalized protein (400 μL; 500 μL final volume) samples and incubated in a water bath at 37°C for 10 min (jejunum protein) or 30 min (lung protein). […] The products of the reaction were extracted via lipid extraction methods (see section “Lipid Extraction for Enzyme Assays”) and quantified via UPLC-MS/MS (see section “Quantitation of MAG Degradative Enzyme Activity Assay Products”).
Lipids were extracted using liquid-liquid extraction with chloroform (2.0 mL) followed by 0.8 mL 0.2-micron ultra-purified water. […] Products were detected and quantified via UPLC-MS/MS techniques (see section “UPLC-MS/MS Detection of Analytes”). […]

[2] = target: T1, FAAH (Mus musculus, UniProt O08914); assay: FAAH activity assay, UPLC-MS/MS, lung protein isolates; format: biochemical; settings: lung protein 10 μg
T1 construct: from tissue; host or cells: mouse (C57BL/6J) lung, 21,100 x g pellet
T1 sequence (O08914 1-579): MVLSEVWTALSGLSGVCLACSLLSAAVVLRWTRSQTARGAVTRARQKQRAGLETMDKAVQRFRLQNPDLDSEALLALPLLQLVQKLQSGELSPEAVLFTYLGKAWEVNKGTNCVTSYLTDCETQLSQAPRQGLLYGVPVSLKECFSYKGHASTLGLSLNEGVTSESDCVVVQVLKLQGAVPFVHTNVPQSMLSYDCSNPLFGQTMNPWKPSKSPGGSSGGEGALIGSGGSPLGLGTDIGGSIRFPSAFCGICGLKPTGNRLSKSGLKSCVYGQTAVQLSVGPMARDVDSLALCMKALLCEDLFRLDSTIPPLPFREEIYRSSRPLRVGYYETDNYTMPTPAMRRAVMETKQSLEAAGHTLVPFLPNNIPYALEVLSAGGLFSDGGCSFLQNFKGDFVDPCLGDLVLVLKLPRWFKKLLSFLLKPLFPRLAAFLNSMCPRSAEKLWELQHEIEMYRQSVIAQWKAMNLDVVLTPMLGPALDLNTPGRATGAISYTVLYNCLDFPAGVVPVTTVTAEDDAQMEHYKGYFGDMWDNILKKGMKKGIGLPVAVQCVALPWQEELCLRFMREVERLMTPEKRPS
Procedure: (§2) Homogenized samples were centrifuged at 21,100 × g for 30 min at 4°C. The supernatant was discarded, and the pellets were resuspended in 750 μL of chilled 1x PBS (pH = 7.0). To ensure homogenous solution, lung samples were further homogenized using a sonic dismembranator using 8–10 root mean square (RMS) Watts of output power. Total protein was then quantified via BCA assay and normalized between all samples. Alternative protein isolation methods were required for FAAH isolation due to its subcellular localization to membranes of cytoplasmic organelles ([Gulyas et al., 2004]).
(§3) Substrate solutions were prepared by drying stock [^2H4]-PEA (5 nmol/reaction) under N2 steam and adding fatty acid free BSA (0.25%) and stock 50 mM Tris–HCl (pH = 8.0). The substrate solution was then bath sonicated for 60 min while protein samples were prepared. […] The products of the reaction were extracted via lipid extraction methods (see section “Lipid Extraction for Enzyme Assays”) and quantified via UPLC-MS/MS (see section “Quantitation of FAE Degradative Enzyme Activity”).
(§4) Lipids were extracted using liquid-liquid extraction with chloroform (2.0 mL) followed by 0.8 mL 0.2-micron ultra-purified water. […] Products were detected and quantified via UPLC-MS/MS techniques (see section “UPLC-MS/MS Detection of Analytes”).

[3] = target: T1, FAAH; assay: FAAH (FAE degradative enzyme) activity assay, UPLC-MS/MS, jejunum epithelium protein isolates; format: biochemical; settings: jejunum epithelium protein 50 μg
Procedure: as §2, §3, §4

[4] = system: FAAH; set-up: method as in Piomelli et al., 2006; settings: rat brain membranes; ref Piomelli et al., 2006; read-out: IC50 reported for rat brain membranes; cited from earlier work
[5] = system: ABHD6; set-up: method as in Li et al., 2007; settings: fibroblast cell line; ref Li et al., 2007; read-out: IC50 reported for a fibroblast cell line; cited from earlier work
[6] = target: T2, ABHD6 (Mus musculus, UniProt Q8R2Y0); assay: MAG degradative enzyme activity assay with WWL 70, lung protein isolates; format: biochemical; settings: for MAG metabolism, product recovery (normalized response): lung protein 25 μg, WWL 70 alone
T2 construct: from tissue; host or cells: mouse (C57BL/6J) lung, 800 x g supernatant
T2 sequence (Q8R2Y0 1-336): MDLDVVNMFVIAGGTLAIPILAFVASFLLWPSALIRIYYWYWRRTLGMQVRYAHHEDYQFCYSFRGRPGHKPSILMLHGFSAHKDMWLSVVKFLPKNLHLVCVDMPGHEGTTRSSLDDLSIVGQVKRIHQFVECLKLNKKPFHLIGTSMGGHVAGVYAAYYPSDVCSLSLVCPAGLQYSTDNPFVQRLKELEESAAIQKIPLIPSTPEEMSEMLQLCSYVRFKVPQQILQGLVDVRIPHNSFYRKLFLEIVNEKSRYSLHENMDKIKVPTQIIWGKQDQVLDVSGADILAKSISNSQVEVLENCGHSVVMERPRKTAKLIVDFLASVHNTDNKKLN
Procedure: as §1
Substrate solutions were prepared by drying stock 19:2 MAG (50 nmol/reaction) under N2 steam and adding fatty acid free BSA (0.25%) and stock 50 mM Tris–HCl (pH = 8.0). The MGL substrate solution was then sonicated for 60 min while protein samples were prepared. […] MGL substrate solution was added to normalized protein (400 μL; 500 μL final volume) samples and incubated in a water bath at 37°C for 10 min (jejunum protein) or 30 min (lung protein). The reaction was stopped using 1.0 mL of chilled methanol containing the internal standard 17:1 FFA (5 nmol/reaction) and placed on ice. The products of the reaction were extracted via lipid extraction methods (see section “Lipid Extraction for Enzyme Assays”) and quantified via UPLC-MS/MS (see section “Quantitation of MAG Degradative Enzyme Activity Assay Products”).
Lipids were extracted using liquid-liquid extraction with chloroform (2.0 mL) followed by 0.8 mL 0.2-micron ultra-purified water. Samples were centrifuged (1500 × g, 5 min, 4°C) and the lower organic phase was collected. The samples were further purified, as previously described ([Batugedara et al., 2018]), via open-bed silica gel column chromatography which was washed with a 9:1 chloroform:methanol mixture to elute MAGs, FAEs, and FFAs for collection. Eluates were dried under N2 steam (99.998% pure) and resuspended in 0.2 mL of methanol:chloroform (1:1). Products were detected and quantified via UPLC-MS/MS techniques (see section “UPLC-MS/MS Detection of Analytes”).
Data was acquired using equipment described above (see section “UPLC-MS/MS Detection of Analytes”) and eluted by a gradient of water and methanol (containing 0.25% acetic acid, 5 mM ammonium acetate) at a flow rate of 0.4 mL/min and gradient: 90% methanol 0.0–0.1 min, 90–100% methanol 0.1–2.0 min, 100% methanol 2.0–2.1 min, 100–90% methanol 2.1–2.2 min, and 90% methanol 2.2–2.5 min. […] Lipids were quantified using a dilution series detecting deprotonated molecular ions in selected ion reading (SIR) mode (variable amounts of product 19:2 FFA versus fixed amount of internal standard 17:1 FFA). Extracted ion chromatograms for SIR masses were used to quantify analytes: 19:2 FFA (m/z = 293.2) product of MGL enzyme assay and 17:1 FFA (m/z = 267.2) as internal standard. Signal to noise ratio was >10 for all quantitated results.

[7] = highest inhibitor concentration of range (1,000 nM)
[8] = lowest inhibitor concentration of range (3 nM)

O=C(Oc1ccc([N+](=O)[O-])cc1)N1CCC(C(O)(c2ccc3c(c2)OCO3)c2ccc3c(c2)OCO3)CC1 [JZL 184]
MAG metabolism (normalized response) ([1]; 10 μM WWL 70 plus JZL 184, highest concentration of range (10,000 nM)): 22.32 ± 2.73%
MAG metabolism (normalized response) ([1]; 10 μM WWL 70 plus JZL 184, lowest concentration of range (3 nM)): 94.25 ± 6.64%

NC(=O)c1cccc(-c2cccc(OC(=O)NC3CCCCC3)c2)c1 [URB597]
FAE metabolism (normalized response) [2, 7]: 4.15 ± 0.46%
FAE metabolism (normalized response) [2, 8]: 90.11 ± 8.58%
FAAH activity (normalized response) [3, 7]: 7.37 ± 0.001%
FAAH activity (normalized response) [3, 8]: 94.95 ± 7.89%

CN(Cc1cccc(-c2ccncc2)c1)C(=O)Oc1ccc(-c2ccc(C(N)=O)cc2)cc1 [WWL 70]
MAG metabolism, product recovery (normalized response) ([6]; highest concentration of range (10,000 nM)): 33.07 ± 1.72%
MAG metabolism, product recovery (normalized response) ([6]; lowest concentration of range (3 nM)): 87.89 ± 13.69%
IC50 ([6]; mouse lung protein isolates 25 μg, WWL 70 3-10,000 nM alone, inhibition incomplete, read-out: IC50, inhibition of MAG metabolism (ABHD6 activity)): 780 nM
blockade of MAG degradation, maximum ([6]; protein isolates from lungs of healthy male mice, concentration-dependent): up to 66%
